# Experimental data taken from paper PMC6778101 (Nature Communications, 2019).
# Entries after “also recorded” stand apart in the source; their conditions may differ. Like-named read-outs stand apart in the source and are kept apart here. Peptide text beside a SMILES is read from it.
# Legend:
# [1] = test system: 38 AMP-adapted E. coli K-12 BW25113 lines; test: Cross-resistance of AMP-resistant lines (relative MIC); format: cell-based, Escherichia coli; conditions: for Relative MIC (MICevolved / MICcontrol): >1 cross-resistance, <1 collateral sensitivity
# Description: Next, we have explored whether laboratory evolved AMP resistance provide any cross-resistance to AMPs which appear to be less prone to resistance. […] We have measured the changes in susceptibilities of these strains to the AMPs (PLEU, PGLA, R8, IND, TPII, and CP1) towards which resistance evolution was limited, as well as to the human peptide LL37. LL37 is a cathelicidin-derived AMP present throughout the human body with critical defensive roles. Cross-resistance was defined as a minimum of twofold increase in resistance level.
# (§1) MICs were determined using a standard serial broth dilution technique. Briefly, 11-step serial dilutions were prepared in 96-well microtiter plates with three replicates per strain and antimicrobial compound. Each experiment was repeated at least twice. 5 × 10^5 cells/mL were inoculated into each well, and the plates were incubated at 30 °C in case of E. coli K-12 BW25113, and its antibiotic and AMP-adapted lines, or 37 °C in case of the other bacterial species. Plates were shaken at 300 r.p.m. during incubation for 24 and 18 h, respectively. Cell growth was monitored by measuring the optical density (OD600 value, Biotek Synergy 2 microplate reader was used for this purpose). […] Relative MIC was calculated as follows: MICrelative = MICevolved/MICcontrol.
# E.coli K-12 BW25113 = format: cell-based, Escherichia coli; conditions: for MIC (freshly prepared AMP): plates inoculated immediately; for MIC (pre-incubated AMP): plates pre-incubated 72 hours before inoculation
# Protocol: as §1
# Supplementary Table 7- Effect of incubation time on the minimum inhibitory concentration (MIC) of AMPs. We tested whether the prolonged incubation time can affect the MIC of AMPs. To test this, two sets of AMP containing MIC plates were prepared in parallel. The first set was immediately inoculated with E.coli K-12 BW25113, while the second set was pre-incubated 72 hours before inoculation with the […]
# observed in the MIC between freshly prepared and pre-incubated plates. […]
# [2] = time allowed for bacterial growth 24 hours
# [3] = time allowed for bacterial growth 48 hours
# [4] = time allowed for bacterial growth 72 hours
structure (smiles),measurement,setting,value
"CC[C@H](C)[C@@H]1NC(=O)CNC(=O)[C@H](CCCNC(=N)N)NC(=O)[C@H](Cc2ccc(O)cc2)NC(=O)[C@@H]2CSSC[C@H](NC1=O)C(=O)N[C@@H](Cc1ccc(O)cc1)C(=O)N[C@@H](CCCNC(=N)N)C(=O)N[C@@H](CCCCN)C(=O)N[C@H](C(=O)N[C@@H](CCCNC(=N)N)C(N)=O)CSSC[C@H](NC(=O)[C@H](Cc1c[nH]c3ccccc13)NC(=O)[C@@H](N)CCCNC(=N)N)C(=O)N[C@@H](Cc1ccccc1)C(=O)N[C@@H](CCCNC(=N)N)C(=O)N[C@@H](C(C)C)C(=O)N2 [TPII, tachyplesin II] (HELM PEPTIDE1{R.W.C.F.R.V.C.Y.R.G.I.C.Y.R.K.C.R.[am]}$PEPTIDE1,PEPTIDE1,3:R3-16:R3|PEPTIDE1,PEPTIDE1,7:R3-12:R3$$$V2.0; N-terminus and C-terminus assumed; bridges inferred)",Fold change in minimum inhibitory concentration (MIC),[1]; AMP-adapted line BAC5_3,1
same,Relative MIC (MICevolved / MICcontrol),[1]; AMP-adapted line BAC5_3,1
same,Fold change in minimum inhibitory concentration (MIC),[1]; AMP-adapted line BAC5_5,1
same,Relative MIC (MICevolved / MICcontrol),[1]; AMP-adapted line BAC5_5,1
same,Fold change in minimum inhibitory concentration (MIC),[1]; AMP-adapted line BAC5_7,1.1
same,Relative MIC (MICevolved / MICcontrol),[1]; AMP-adapted line BAC5_7,1.1
same,Fold change in minimum inhibitory concentration (MIC),[1]; AMP-adapted line BAC5_10,1.1
same,Relative MIC (MICevolved / MICcontrol),[1]; AMP-adapted line BAC5_10,1.1
same,Fold change in minimum inhibitory concentration (MIC),[1]; AMP-adapted line CAP18_2,1.1
same,Relative MIC (MICevolved / MICcontrol),[1]; AMP-adapted line CAP18_2,1.1
same,Fold change in minimum inhibitory concentration (MIC),[1]; AMP-adapted line CAP18_5,1
same,Relative MIC (MICevolved / MICcontrol),[1]; AMP-adapted line CAP18_5,1
same,Fold change in minimum inhibitory concentration (MIC),[1]; AMP-adapted line CAP18_6,1
same,Relative MIC (MICevolved / MICcontrol),[1]; AMP-adapted line CAP18_6,1
same,Fold change in minimum inhibitory concentration (MIC),[1]; AMP-adapted line CAP18_8,1.1
same,Relative MIC (MICevolved / MICcontrol),[1]; AMP-adapted line CAP18_8,1.1
same,Fold change in minimum inhibitory concentration (MIC),[1]; AMP-adapted line CAP18_10,1
same,Relative MIC (MICevolved / MICcontrol),[1]; AMP-adapted line CAP18_10,1
same,Fold change in minimum inhibitory concentration (MIC),[1]; AMP-adapted line HBD3_3,1.2
same,Relative MIC (MICevolved / MICcontrol),[1]; AMP-adapted line HBD3_3,1.2
same,Fold change in minimum inhibitory concentration (MIC),[1]; AMP-adapted line HBD3_6,1.2
same,Relative MIC (MICevolved / MICcontrol),[1]; AMP-adapted line HBD3_6,1.2
same,Fold change in minimum inhibitory concentration (MIC),[1]; AMP-adapted line HBD3_8,1.2
same,Relative MIC (MICevolved / MICcontrol),[1]; AMP-adapted line HBD3_8,1.2
same,Fold change in minimum inhibitory concentration (MIC),[1]; AMP-adapted line HBD3_10,1.2
same,Relative MIC (MICevolved / MICcontrol),[1]; AMP-adapted line HBD3_10,1.2
same,Fold change in minimum inhibitory concentration (MIC),[1]; AMP-adapted line LL37_1,1.1
same,Relative MIC (MICevolved / MICcontrol),[1]; AMP-adapted line LL37_1,1.1
same,Fold change in minimum inhibitory concentration (MIC),[1]; AMP-adapted line LL37_3,1.1
same,Relative MIC (MICevolved / MICcontrol),[1]; AMP-adapted line LL37_3,1.1
same,Fold change in minimum inhibitory concentration (MIC),[1]; AMP-adapted line LL37_6,1
same,Relative MIC (MICevolved / MICcontrol),[1]; AMP-adapted line LL37_6,1
same,Fold change in minimum inhibitory concentration (MIC),[1]; AMP-adapted line LL37_7,1
same,Relative MIC (MICevolved / MICcontrol),[1]; AMP-adapted line LL37_7,1
same,Fold change in minimum inhibitory concentration (MIC),[1]; AMP-adapted line LL37_10,1
same,Relative MIC (MICevolved / MICcontrol),[1]; AMP-adapted line LL37_10,1
same,Fold change in minimum inhibitory concentration (MIC),[1]; AMP-adapted line PEX_1,1.1
same,Relative MIC (MICevolved / MICcontrol),[1]; AMP-adapted line PEX_1,1.1
same,Fold change in minimum inhibitory concentration (MIC),[1]; AMP-adapted line PEX_4,1.2
same,Relative MIC (MICevolved / MICcontrol),[1]; AMP-adapted line PEX_4,1.2
same,Fold change in minimum inhibitory concentration (MIC),[1]; AMP-adapted line PEX_5,1.1
same,Relative MIC (MICevolved / MICcontrol),[1]; AMP-adapted line PEX_5,1.1
same,Fold change in minimum inhibitory concentration (MIC),[1]; AMP-adapted line PEX_6,1
same,Relative MIC (MICevolved / MICcontrol),[1]; AMP-adapted line PEX_6,1
same,Fold change in minimum inhibitory concentration (MIC),[1]; AMP-adapted line PEX_7,1
same,Relative MIC (MICevolved / MICcontrol),[1]; AMP-adapted line PEX_7,1
same,Fold change in minimum inhibitory concentration (MIC),[1]; AMP-adapted line PR39_1,1
same,Relative MIC (MICevolved / MICcontrol),[1]; AMP-adapted line PR39_1,1
same,Fold change in minimum inhibitory concentration (MIC),[1]; AMP-adapted line PR39_2,0.9
same,Relative MIC (MICevolved / MICcontrol),[1]; AMP-adapted line PR39_2,0.9
same,Fold change in minimum inhibitory concentration (MIC),[1]; AMP-adapted line PR39_5,0.9
same,Relative MIC (MICevolved / MICcontrol),[1]; AMP-adapted line PR39_5,0.9
same,Fold change in minimum inhibitory concentration (MIC),[1]; AMP-adapted line PR39_7,0.9
same,Relative MIC (MICevolved / MICcontrol),[1]; AMP-adapted line PR39_7,0.9
same,Fold change in minimum inhibitory concentration (MIC),[1]; AMP-adapted line PR39_10,0.9
same,Relative MIC (MICevolved / MICcontrol),[1]; AMP-adapted line PR39_10,0.9
same,Fold change in minimum inhibitory concentration (MIC),[1]; AMP-adapted line PROA_2,1.1
same,Relative MIC (MICevolved / MICcontrol),[1]; AMP-adapted line PROA_2,1.1
same,Fold change in minimum inhibitory concentration (MIC),[1]; AMP-adapted line PROA_3,0.8
same,Relative MIC (MICevolved / MICcontrol),[1]; AMP-adapted line PROA_3,0.8
same,Fold change in minimum inhibitory concentration (MIC),[1]; AMP-adapted line PROA_7,1
same,Relative MIC (MICevolved / MICcontrol),[1]; AMP-adapted line PROA_7,1
same,Fold change in minimum inhibitory concentration (MIC),[1]; AMP-adapted line PROA_8,1
same,Relative MIC (MICevolved / MICcontrol),[1]; AMP-adapted line PROA_8,1
same,Fold change in minimum inhibitory concentration (MIC),[1]; AMP-adapted line PROA_9,1.1
same,Relative MIC (MICevolved / MICcontrol),[1]; AMP-adapted line PROA_9,1.1
same,Fold change in minimum inhibitory concentration (MIC),[1]; AMP-adapted line PXB_2,1.1
same,Relative MIC (MICevolved / MICcontrol),[1]; AMP-adapted line PXB_2,1.1
same,Fold change in minimum inhibitory concentration (MIC),[1]; AMP-adapted line PXB_5,1
same,Relative MIC (MICevolved / MICcontrol),[1]; AMP-adapted line PXB_5,1
same,Fold change in minimum inhibitory concentration (MIC),[1]; AMP-adapted line PXB_6,1.1
same,Relative MIC (MICevolved / MICcontrol),[1]; AMP-adapted line PXB_6,1.1
same,Fold change in minimum inhibitory concentration (MIC),[1]; AMP-adapted line PXB_8,1
same,Relative MIC (MICevolved / MICcontrol),[1]; AMP-adapted line PXB_8,1
same,Fold change in minimum inhibitory concentration (MIC),[1]; AMP-adapted line PXB_10,1.1
same,Relative MIC (MICevolved / MICcontrol),[1]; AMP-adapted line PXB_10,1.1
same,cross-resistance of the 38 AMP-resistant lines to the AMP (in words),[1]; cross-resistance = minimum of twofold increase in resistance level,none of the 38 AMP-resistant lines displayed cross-resistance; also recorded: no cross-resistance
same,MIC (freshly prepared AMP),E.coli K-12 BW25113; [2],5 µg/mL
same,MIC (freshly prepared AMP),E.coli K-12 BW25113; [3],5 µg/mL
same,MIC (freshly prepared AMP),E.coli K-12 BW25113; [4],5 µg/mL
same,MIC (pre-incubated AMP),E.coli K-12 BW25113; [2],6 µg/mL
same,MIC (pre-incubated AMP),E.coli K-12 BW25113; [3],6 µg/mL
same,MIC (pre-incubated AMP),E.coli K-12 BW25113; [4],6 µg/mL
